Laboratory results reported in ChEMBL document CHEMBL5137125, “Echiumin E, an Aryl Dihydronaphthalene Lignan from the Australian Invasive Plant Paterson's Curse (Echium plantagineum)” (J Nat Prod, 2022).

How the values were obtained:
PC-3 = assay: Cytotoxicity against human PC-3 cells assessed as inhibition of cell growth and measured after 72 hrs resazurin reduction assay; assay type: functional, cell-based; settings: PC-3, 72 h
[1] = Cytotoxicity against human WPMY-1 cells assessed as inhibition of cell growth and measured after 72 hrs resazurin reduction assay; assay type: toxicity, cell-based; settings: for IC50 at 72 h: WPMY-1 cells
SH-SY5Y [2] = assay: Cytotoxicity against human SH-SY5Y cells assessed as inhibition of cell growth and measured after 72 hrs resazurin reduction assay; assay type: functional, cell-based
SH-SY5Y [3] = assay: Cytotoxicity against human SH-SY5Y cells assessed as inhibition of cell growth and measured upto 72 hrs by clonogenic assay; assay type: functional, cell-based
HeLa = assay: Cytotoxicity against human HeLa cells assessed as inhibition of cell growth and measured after 72 hrs resazurin reduction assay; assay type: functional, cell-based

## COc1cc([C@H]2c3cc(O)c(OC)cc3C=C3C(=O)OC[C@H]4O[C@@](CO)(O[C@H]5O[C@H](COC(=O)/C=C/c6ccc(O[C@@H]7O[C@@H](C)[C@H](O)[C@@H](O)[C@H]7O)cc6)[C@@H](O)[C@H](O)[C@H]5O)[C@@H](OC(=O)[C@@H]32)[C@@H]4O)ccc1O
PC-3
  IC50: > 10000 nM
[1]; wpmy-1, 72 h, time 72 hrs
  Activity: Non-Toxic
SH-SY5Y [2]
  IC50: > 10000 nM

## O=C(O[C@H](Cc1ccc(O)c(O)c1)C(=O)O)c1cc(-c2ccc(O)c(O)c2)c2cc(O)c(O)cc2c1
PC-3
  IC50: > 10000 nM
[1]
  IC50 at 72 h: > 10000 nM
SH-SY5Y [2]
  IC50: > 10000 nM

## O=C(OC(Cc1ccc(O)c(O)c1)C(=O)O)C1=Cc2cc(O)c(O)cc2[C@H](c2ccc(O)c(O)c2)[C@H]1C(=O)O[C@@H](Cc1ccc(O)c(O)c1)C(=O)O (some centres undefined)
PC-3
  IC50: > 10000 nM
[1]
  IC50 at 72 h: > 10000 nM
SH-SY5Y [2]
  IC50: > 10000 nM

## CC(=O)O[C@@]12CO[C@@H]1C[C@H](O)[C@@]1(C)C(=O)[C@H](O)C3=C(C)[C@@H](OC(=O)[C@H](O)[C@@H](NC(=O)OC(C)(C)C)c4ccccc4)C[C@@](O)([C@@H](OC(=O)c4ccccc4)[C@H]21)C3(C)C [DOCETAXEL ANHYDROUS]
PC-3
  IC50: 0.6 nM
[1]
  IC50 at 72 h: 210 nM
SH-SY5Y [3]
  IC50: 1.8 nM

## COc1cccc2c1C(=O)c1c(O)c3c(c(O)c1C2=O)C[C@@](O)(C(=O)CO)C[C@@H]3O[C@H]1C[C@H](N)[C@H](O)[C@H](C)O1 [DOXORUBICIN]
PC-3
  IC50: 10 nM
[1]
  IC50 at 72 h: 20 nM
SH-SY5Y [2]
  IC50: 40 nM
HeLa
  IC50: 1960 nM

## O=C(/C=C/c1ccc(O)c(O)c1)O[C@H](Cc1ccc(O)c(O)c1)C(=O)O [ROSMARINIC ACID]
PC-3
  IC50: > 10000 nM
[1]
  IC50 at 72 h: > 10000 nM
SH-SY5Y [2]
  IC50: > 10000 nM
